Source: patent US20260221281A1, “PREDICTING PATIENT OUTCOMES RELATED TO PANCREATIC CANCER” (Valar Labs, Inc., priority 2023, published 2026)

Tests used:
Assay type in all cases: in vivo, human
[1] = tested on: resected pancreatic ductal adenocarcinoma (PDAC); assay: DSS after adjuvant gemcitabine in resected PDAC, TCGA test set stratified by VPG signature
From the text: Data from three cohorts of patients were utilized for this experiment: a cohort of 93 patients forming a training data set, a cohort of 46 patients forming a first external data set, and a cohort of 161 patients forming a second external data set. The training data set was identified by selecting PDAC patients who had received adjuvant gemcitabine and no 5-fluorouracil. The training data set included available histopathologic images, data on disease specific survival, and demographic details. From the available histopathologic images, the image identified as the diagnostic slide was used for image analysis by the AI-based pathology platform. Scanned histologic images were analyzed through an AI-based pathology platform in accordance with the systems and methods described herein. The process included tissue segmentation, nuclei segmentation, and finally geometric feature extraction. Tissue was segmented via color-based thresholding to remove empty regions of the slide. Patches of size 2132×2132 were extracted from tissue regions and a validated deep learning model developed was used to segment and classify each nucleus automatically into five classes (i.e., Neoplastic, Connective, No-Neoplastic/Epithelial, Necrotic, Inflammatory). Descriptive morphometric features were then computed for each nucleus. Geometric features were then aggregated first at the patch, and subsequently at the patient level using summary statistics including the mean, standard deviation, skewness and kurtosis to produce the final feature vector for a patient. This feature vector was used as the input to a cox proportional hazards model that used the least absolute shrinkage and selection operator to identify the most correlated features with DSS along with their coefficients on the training set. FIG. 9 provides an illustration of a process to construct a histologic signature associated with disease-specific survival (DSS) after adjuvant gemcitabine. A dataset of scanned whole slide images and the associated clinical data from a cohort of 93 PDAC patients treated with adjuvant gemcitabine in The Cancer Genome Atlas (TCGA) was analyzed. The process to construct a histologic signature includes obtaining a slide 901, digitizing a slide 903, and determining the presence or absence of a histologic biomarker 905. Slides may be obtained in step 901 by resection of pancreatic ductal adenocarcinoma (PDAC). The slides may then then be digitized in step 903 by scanning hematoxylin and eosin-stained resection specimens for whole slide images and subsequently performing digital pathology analysis. […]

[2] = tested on: resected pancreatic ductal adenocarcinoma (PDAC); assay: DSS and time to recurrence after adjuvant gemcitabine in resected PDAC, external cohort stratified by VPG signature; conditions: for median time to recurrence: adjuvant gemcitabine-based therapy (n=46)
From the text: The first external data set represented a set of consecutive 24 patients treated with resection and adjuvant gemcitabine. Clinical data was obtained via manual chart review of the electronic medical record. Digitally scanned tissue microarray specimens were used for image analysis. The cores were 1 mm and were obtained from formalin-fixed, paraffin-embedded (FFPE) samples of extra portions of surgical resections. Whole tissue resection specimens were not available for analysis for this study. Scanned histologic images were analyzed through an AI-based pathology platform in accordance with the systems and methods described herein. The process included tissue segmentation, nuclei segmentation, and finally geometric feature extraction. Tissue was segmented via color-based thresholding to remove empty regions of the slide. Patches of size 2132×2132 were extracted from tissue regions and a validated deep learning model developed was used to segment and classify each nucleus automatically into five classes (i.e., Neoplastic, Connective, No-Neoplastic/Epithelial, Necrotic, Inflammatory). Descriptive morphometric features were then computed for each nucleus. Geometric features were then aggregated first at the patch, and subsequently at the patient level using summary statistics including the mean, standard deviation, skewness and kurtosis to produce the final feature vector for a patient. This feature vector was used as the input to a cox proportional hazards model that used the least absolute shrinkage and selection operator to identify the most correlated features with DSS along with their coefficients on the training set. Subsequently, the performance of the signature in stratifying patients was assessed in two external validation cohorts. A first external cohort 1005 included 45 patients who underwent PDAC resection followed by gemcitabine treatment for whom digitally scanned tissue microarrays of tumor specimens were available. A second external cohort 1007 included 161 patients, whose tumors were resected between 1978 and 2008, when adjuvant treatment was not administered as part of the standard of care. To investigate performance beyond the [NT], experiments applying the model in a retrospective cohort of adjuvant-gemcitabine-treated patients and a retrospective cohort of untreated patients were performed. As illustrated in FIGS. 17A-17D, the VPG signature generalizes to external cohorts of gemcitabine-treated patients but not untreated patients.

[3] = tested on: resected PDAC tumors; assay: DSS of resected PDAC patients receiving gemcitabine, divided into two histological subtypes by the model (Example 3)
From the text: One hundred and thirty-nine (139) whole-slide digitized histological slides corresponding to one hundred and two (102) resected PDAC tumors from a data set were used as a training set. This dataset corresponded to patients that had received either gemcitabine-backbone or 5 FU-backbone chemotherapy as their first-line adjuvant treatment. An AI-based pathology platform such as the one described herein was used to extract nuclei images from tissue regions using segmentation models and compute geometric features of these nuclei. The subsequent features were then correlated with Disease Specific Survival (DSS) in order to construct a signature associated with treatment benefit. The resulting signature was compared against two board certified pathologists using the grade of the digital slides images to classify patients into above or below average DSS buckets.

[4] = tested on: resected PDAC; assay: DSS and RFS of post-operatively treated resected PDAC patients, external cohort stratified by gemcitabine-response signature (Example 4); conditions: external cohort (45 patients)
From the text: Digitized histological hematoxylin and cosin stained tissue microarray blocks corresponding to post-operatively treated resected PDAC patients from 2011-2015 were used in this experiment. Of the 45 patients, 22 were neoadjuvantly treated with either gemcitabine or 5-FIU backbone cytotoxic chemotherapy. Using the histologic images, the AI-based pathology platform extracted nuclei images from tissue regions using segmentation models and computed geometric features of these nuclei. Patients were stratified by the signature previously associated with gemcitabine response in a dataset into low and high risk groups, and Disease Specific Survival (DSS) and Recurrence Free Survival (RFS) was compared between the stratified groups via Kaplan Meier estimators and log-rank test.

Structure (SMILES): Nc1ccn([C@@H]2O[C@H](CO)[C@@H](O)C2(F)F)c(=O)n1 [gemcitabine]
- median DSS ([1]; TCGA validation subset (47 patients), negative VPG signature): 16.0 months
- median DSS ([1]; TCGA validation subset (47 patients), positive VPG signature): 67.9 months
- median DSS ([1]; sub-group of 39 validation patients with RNAseq data, negative VPG signature): 16.0 months
- median DSS ([1]; sub-group of 39 validation patients with RNAseq data, positive VPG signature): 67.9 months
- median time to recurrence ([2]; negative VPG signature): 9.1 months
- median time to recurrence ([2]; positive VPG signature): 22.6 months
- median DSS ([2]; adjuvant gemcitabine-based therapy, external cohort (n=46), negative VPG signature): 16 months
- median DSS ([2]; adjuvant gemcitabine-based therapy, external cohort (n=46), positive VPG signature): 43.1 months
- median DSS ([2]; external cohort, no therapy prior to surgery (n=24), negative VPG signature): 12.9 months
- median DSS ([2]; external cohort, no therapy prior to surgery (n=24), positive VPG signature): 40.2 months
- median DSS ([3]; first histological subtype (threshold: average expected lifetime)): 586 days
- median DSS ([3]; second histological subtype (threshold: average expected lifetime)): 394 days
- median DSS ([4]; high risk group): 16 months
- median RFS ([4]; high risk group): 9.1 months
- median DSS ([4]; low risk group): 43 months
- median RFS ([4]; low risk group): 22.6 months
